Results reported in patent US9890403B2, “Method for producing single cell oil from lignocellulosic materials” (NESTE OYJ, priority 2013, dated 2018).
Read-outs that look alike come from different tables or passages of the source.

Legend:
[1] = tested on: Aspergillus oryzae TKK-4; experiment: Effect of furfural on microbial growth, flask cultivation (Example 7); type: cell-based; details: for DW (dry weight concentration): after 6 days of cultivation
Method: (§1) Two fungal strains Aspergillus oryzae TKK-4 and Mortierella isabellina TKK-1 and one yeast strain Lipomyces starkeyi TKK-1 were cultivated in flasks in a standard medium (Table 12) with furfural addition. The microorganisms were grown for 6 days in 28° C. with 160 rpm (for fungi) and 250 rpm (for yeast). Cellulose was added to help the fungus grow with a better morphology. Furfural was added in different amounts into the medium (0-4 g/l) and the growth of the microorganisms was observed.

[2] = tested on: Mortierella isabellina TKK-1; experiment: as above; type: cell-based; details: for DW (dry weight concentration): after 6 days of cultivation
Method: as §1

[3] = tested on: Lipomyces starkeyi TKK-1; experiment: as above; type: cell-based; details: for DW (dry weight concentration): after 6 days of cultivation
Method: as §1

[4] = tested on: Aspergillus. oryzae; details: 5 days, 28 C
Method: The experiments were done using a lipid producing fungal strain Aspergillus. oryzae. From the sporulating fungus grown on PDA-plates a spore suspension was made by adding 12 ml of sterile water and the spores were scraped off with inoculation loop to the liquid. The spore suspension was used for media inoculation.
All of them contained these basic nutrients, and small amount of fine cellulose to prevent the fungus from clumping.
The organic acids were added in so the concentration of the formic and acetic acid alone was 0, 1, 3, 5 and 7 g/l, and for the two acids together 0, 1, 3, 5, 7 and 9 g/l. After this the pH of the media was adjusted to 5.5-6.0 using 3 M NaOH. The medium was distributed to 50 ml batches into 250 ml erlenmayer flasks. The media was sterilized in autoclave 121 C 15 min. After cooling down, each flask was inoculated using 0.5 ml spore suspension mentioned earlier. For each concentration, parallel cultivations were made. The cultivations were incubated in 160 rpm shaking at 28 C 5 days. The growth was observed daily with a microscope, and in the end of the cultivation the biomass and lipid contents were determined.
The biomass content was determined by vacuum filtering the whole content of the flask and washing the biomass with 50 ml of distilled water. After this the biomass cakes were frozen and dried overnight in freeze dryer. From the dries biomass the lipid content was analyzed according to Suutari et al. (1990). The lipids in the samples were first hydrolysed into free fatty acids, which were saponified into sodium salts thereof and thereafter methylated into methyl esters. The fatty methyl esters were analysed gas chromatographically.

Row | SMILES | Biomass concentration ([4]; acid concentration 1 g/l) | Lipid content ([4]; acid concentration 1 g/l) | Biomass concentration ([4]; acid concentration 3 g/l) | Lipid content ([4]; acid concentration 3 g/l) | Biomass concentration ([4]; acid concentration 5 g/l) | Lipid content ([4]; acid concentration 5 g/l) | Biomass concentration ([4]; acid concentration 7 g/l) | Lipid content ([4]; acid concentration 7 g/l) | also measured
1 | O=Cc1ccco1 [Furfural] | – | – | – | – | – | – | – | – | Furfural concentration in which the microbe grew ([1]; after one week): 0.5 g/L; Furfural concentration that inhibited the growth completely ([1]; after one week): ≥ 0.75 g/L; DW (dry weight concentration) ([1]; furfural 0.1 g/l): 18.18 g/L; DW (dry weight concentration) ([1]; furfural 0.2 g/l): 16.54 g/L; DW (dry weight concentration) ([1]; furfural 0.3 g/l): 13.53 g/L; DW (dry weight concentration) ([1]; furfural 0.4 g/l): 11.58 g/L; Furfural concentration in which the microbe did not grow [2]: ≥ 1 g/L; Furfural concentration in which some growth was observed ([2]; after 4-6 days): 0.8 g/L; DW (dry weight concentration) ([2]; furfural 0.2 g/l): 7.02 g/L; DW (dry weight concentration) ([2]; furfural 0.4 g/l): 13.80 g/L; DW (dry weight concentration) ([2]; furfural 0.6 g/l): 14.96 g/L; DW (dry weight concentration) ([2]; furfural 0.8 g/l): 9.28 g/L; Inhibiting concentration of furfural [3]: ≥ 1.8 g/L; Furfural concentration in which the microbe grew ([3]; after a few days): 1.2 g/L; DW (dry weight concentration) ([3]; furfural 0.6 g/l): 14.79 g/L; DW (dry weight concentration) ([3]; furfural 1.2 g/l): 14.39 g/L
2 | CC(=O)O [Acetic acid, acetic acid] | 12.4 g/L | 19.8 % from cell dry weight | 11.4 g/L | 20.7 % from cell dry weight | 11.1 g/L | 21.2 % from cell dry weight | 11.5 g/L | 24.3 % from cell dry weight | –
3 | O=CO [Formic acid, formic acid] | 12.5 g/L | 19.5 % from cell dry weight | 12.0 g/L | 19.5 % from cell dry weight | 11.2 g/L | 15.9 % from cell dry weight | 10.9 g/L | 19.8 % from cell dry weight | –
